Data on 21 molecules can be found in patent publication US20260256751A1, “COMBINATION OF BETA-2-ADRENERGIC RECEPTOR AGONISTS AND GLP-1 RECEPTOR AGONISTS FOR USE IN TREATING HYPERGLYCAEMIA” (ATROGI AB, priority 2023, published 2026).

Assay [1] deals with differentiated L6-myotubes. Kind of assay: Glucose uptake screen (Biological example 1 of WO 2019/053427). The note with it: compound at 10 μM, activity relative to isoproterenol at 10 μM, read-out: Biological example 1 of WO 2019/053427 (GU). The class given is cell-based. A digest of the protocol: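 Rat L6 myoblasts were differentiated into myotubes over 7 days in 2% FBS, then serum-starved overnight. Cells were stimulated with 1×10^−5 M compound plus β2 antagonist ICI-118551 for 1 h 40 min and re-dosed for 20 min in glucose-free medium. Uptake of 50 nM ^3H-2-deoxyglucose over 10 min was counted after NaOH lysis.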

Assay [2] relates to differentiated L6-myotubes. Kind of assay: cAMP production relative to isoprenaline (Biological example 2 of WO 2019/053427). The class given is cell-based. Conditions: 0.25 h, compound at 10 μM, activity relative to isoproterenol at 10 μM. In outline:
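Differentiated L6 myotubes stimulated 15 min with test compound or isoprenaline, each at final 1×10^−5 M, in HBSS with 1% BSA, 5 mM HEPES, 1 mM IBMX, pH 7.4. cAMP production by the compound expressed relative to that induced by the same concentration of isoprenaline.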
Background: Cyclic AMP is a second messenger, typically raised through Gs and lowered through Gi signalling.

A further assay has as its target T1, β2-adrenergic receptor (Rattus norvegicus, UniProt P10608).
T1 construct: L6-myoblasts were grown in Dulbecco's Modified Eagle's Medium (DMEM); endogenous in cells; host or cells: L6 myoblasts differentiated into myotubes
Briefly: Glucose uptake in the presence of a selective β2-adrenergic receptor inhibitor (Biological Example 1). The class given is cell-based. The note with it: L6-myotubes; Compound A (2HCl salt) 1×10^−5 M in the presence of ICI-118551; FIG. 1.

For assay [3], the system named is male C57Bl/6N mice fed with high-fat, high-sucrose diet. Briefly: Combination of Compound A and liraglutide in high-fat, high-sucrose diet fed mice (Biological Example 2). The class given is in vivo. Conditions: Compound A hemi-tartrate 1 mg/kg with liraglutide 0.1 mg/kg, subcutaneously, daily for 2 weeks; compared with liraglutide; FIGS. 2-5. Here is the method:
2.5 Months old male C57Bl/6N mice were grouped caged (4-5 mice per cage), kept at 30° C. and fed with high-fat, high-sucrose diet (45% fat) for 5.5 months. The mice were divided into four groups (2-3 mice per cage) according to their fasting blood glucose levels, glucose tolerance, body weight, body fat and lean mass, and treated daily for 2 weeks, subcutaneously with either vehicle, liraglutide (0.1 mg/kg), Compound A (1 mg/kg), or a mixture of liraglutide (0.1 mg/kg) and Compound A (1 mg/kg). The mice were fasted for 5 h and fasting blood glucose and fasting serum insulin levels were recorded. Glucose (2.5 g/kg lean mass) was injected ip and glucose levels were recorded after 15, 30, 60, 90 and 120 min. The results were used to calculate HOMA-IR (fasting blood glucose (mM)×fasting insulin (μIU/mL)/22.5) and glucose tolerance (area under the curves 0-120 min over the 5.5 mM blood glucose level).

Assay [4] concerns differentiated L6-myotubes. The note with it: as described in WO 2019/053427, Biological Example 1 therein; cited from earlier work.
Assay [5] deals with differentiated L6-myotubes. The note with it: as described in WO 2019/053427, Biological Example 2 therein; cited from earlier work.

T1 sequence (P10608 whole entry): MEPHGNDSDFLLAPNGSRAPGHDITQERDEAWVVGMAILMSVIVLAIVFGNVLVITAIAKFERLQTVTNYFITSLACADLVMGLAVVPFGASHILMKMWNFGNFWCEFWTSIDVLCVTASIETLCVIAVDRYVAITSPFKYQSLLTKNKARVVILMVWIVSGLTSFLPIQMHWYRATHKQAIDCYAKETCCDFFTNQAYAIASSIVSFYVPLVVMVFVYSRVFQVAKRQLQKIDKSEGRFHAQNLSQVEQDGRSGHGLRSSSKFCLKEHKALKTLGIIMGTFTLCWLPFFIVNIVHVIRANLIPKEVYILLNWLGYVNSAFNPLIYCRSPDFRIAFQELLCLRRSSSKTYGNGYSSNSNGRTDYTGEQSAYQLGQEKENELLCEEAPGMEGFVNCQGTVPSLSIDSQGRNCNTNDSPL
Procedure for β2-adrenergic receptor: L6-myoblasts were grown in Dulbecco's Modified Eagle's Medium (DMEM) containing 1 g/L glucose supplemented with 10% fetal bovine serum (FBS), 2 mM L-glutamine, 50 U/mL penicillin, 50 g/mL streptomycin and 10 mM HEPES. Cells were plated at 1x 10^5 cells per mL in 24-well plates. After reaching 90% confluence the cells were grown in medium containing 2% FBS for 7 days where upon cells differentiated into myotubes. […] After 1 h 40 min the cells were washed with warm, glucose free medium twice and another portion of agonist was added to the glucose free medium. After another 20 min of incubation the cells were exposed to 50 nM ^3H-2-deoxyglucose for 10 min before washed in ice cold glucose free medium three times and lysed in 400 µl/well 0.2 M NaOH for 1 h at 60° C.

With `O[C@H](c1cccc(F)c1)C12CCC(CCc3ccc(Cl)cc3)(CC1)N2` [Compound 528, (R)-{4-[2-(p-chlorophenyl)ethyl]-7-azabicyclo[2.2.1]hept-1-yl}(m-fluorophenyl)methanol], the Emax at 10 µM in assay [1] and in assay [2] was below 25% in each case.
With `O[C@@H](c1cncc(F)c1)C12CCC(C/C=C/c3ccccc3)(CC1)N2` [Compound 529, (S)-{4-[(E)-3-phenyl-2-propenyl]-7-azabicyclo[2.2.1]hept-1-yl}(5-fluoro-3-pyridyl)methanol], the Emax at 10 µM in assay [1] is 25 to 50%; in assay [2], below 25%.
With `O[C@H](c1cncc(F)c1)C12CCC(C/C=C/c3ccccc3)(CC1)N2` [Compound 530], the Emax at 10 µM is above 75% in assay [1] and 25 to 50% in assay [2].
As to `O[C@@H](c1cncc(F)c1)C12CCC(CCCc3ccccc3)(CC1)N2` [Compound 531, (S)-(5-fluoro-3-pyridyl){4-(3-phenylpropyl)-7-azabicyclo[2.2.1]hept-1-yl}methanol], the Emax at 10 µM in assay [1] was 50 to 75%; in assay [2], below 25%.
Consider `O[C@H](c1cncc(F)c1)C12CCC(CCCc3ccccc3)(CC1)N2` [Compound 532, (R)-(5-fluoro-3-pyridyl){4-(3-phenylpropyl)-7-azabicyclo[2.2.1]hept-1-yl}methanol], for which the Emax at 10 µM in assay [1] lay within 50 to 75%; in assay [2] it was 25 to 50%.
On to `O[C@@H](c1cccc(F)c1)C12CCC(C/C=C/c3ccccc3)(CC1)N2` [Compound 533, (S)-{4-[(E)-3-phenyl-2-propenyl]-7-azabicyclo[2.2.1]hept-1-yl}(m-fluorophenyl)methanol], for which the Emax at 10 µM in assay [1] and in assay [2] was below 25% each time.
In the case of `O[C@H](c1cccc(F)c1)C12CCC(C/C=C/c3ccccc3)(CC1)N2` [Compound 534, (R)-{4-[(E)-3-phenyl-2-propenyl]-7-azabicyclo[2.2.1]hept-1-yl}(m-fluorophenyl)methanol], the Emax at 10 µM in assay [1] was above 75%; in assay [2] it was below 25%.
`O[C@@H](c1cccc(F)c1)C12CCC(CCCc3ccccc3)(CC1)N2` [Compound 535, (S)-(m-fluorophenyl){4-(3-phenylpropyl)-7-azabicyclo[2.2.1]hept-1-yl}methanol]: the Emax at 10 µM was 25 to 50% in assay [1] and below 25% in assay [2].
Turning to `O[C@H](c1cccc(F)c1)C12CCC(CCCc3ccccc3)(CC1)N2` [Compound 536, (R)-(m-fluorophenyl){4-(3-phenylpropyl)-7-azabicyclo[2.2.1]hept-1-yl}methanol], the Emax at 10 µM is above 75% in assay [1] and 25 to 50% in assay [2].
For the molecule `CS(=O)(=O)N(Cc1ccccc1)CC12CCC([C@H](O)c3cccc(F)c3)(CC1)N2` [Compound 537, (R)-(4-{[(benzyl)-N-mesylamino]methyl}-7-azabicyclo[2.2.1]hept-1-yl)(m-fluorophenyl)methanol], the Emax at 10 µM in assay [1] was 50 to 75%; in assay [2], 25 to 50%.
Take `CS(=O)(=O)N(Cc1ccccc1)CC12CCC([C@@H](O)c3cccc(F)c3)(CC1)N2` [Compound 538, (S)-(4-{[(benzyl)-N-mesylamino]methyl}-7-azabicyclo[2.2.1]hept-1-yl)(m-fluorophenyl)methanol]: the Emax at 10 µM is 50 to 75% in assay [1] and below 25% in assay [2].
In the case of `COc1ccc(CCC23CCC([C@@H](O)c4cccc(F)c4)(CC2)N3)cc1` [Compound 539, (S)-(m-fluorophenyl){4-[2-(p-methoxyphenyl)ethyl]-7-azabicyclo[2.2.1]hept-1-yl}methanol], the Emax at 10 µM in assay [1] and in assay [2] was below 25% each time.
Consider `COc1ccc(CCC23CCC([C@H](O)c4cccc(F)c4)(CC2)N3)cc1` [Compound 540, (R)-(m-fluorophenyl){4-[2-(p-methoxyphenyl)ethyl]-7-azabicyclo[2.2.1]hept-1-yl}methanol], for which the Emax at 10 µM in assay [1] fell in the range of 50 to 75%; in assay [2], 25 to 50%.
In the case of `COc1ccc(CCC23CCC([C@@H](O)c4cncc(F)c4)(CC2)N3)cc1` [Compound 541, (S)-(5-fluoro-3-pyridyl){4-[2-(p-methoxyphenyl)ethyl]-7-azabicyclo[2.2.1]hept-1-yl}methanol], the Emax at 10 µM in assay [1] and in assay [2] was below 25% throughout.
For `COc1ccc(CCC23CCC([C@H](O)c4cncc(F)c4)(CC2)N3)cc1` [Compound 542, (R)-(5-fluoro-3-pyridyl){4-[2-(p-methoxyphenyl)ethyl]-7-azabicyclo[2.2.1]hept-1-yl}methanol], the Emax at 10 µM in assay [1] was 50 to 75%; in assay [2], 25 to 50%.
Take `O[C@@H](c1cncc(F)c1)C12CCC(CCc3ccc(OC(F)(F)F)cc3)(CC1)N2` [Compound 543, (S)-(5-fluoro-3-pyridyl){4-[2-(p-trifluoromethoxyphenyl)ethyl]-7-azabicyclo[2.2.1]hept-1-yl}methanol]: the Emax at 10 µM in assay [1] and in assay [2] was below 25% in each case.
In the case of `O[C@@H](c1cccc(F)c1)C12CCC(CCc3ccc(OC(F)(F)F)cc3)(CC1)N2` [Compound 544, (S)-(m-fluorophenyl){4-[2-(p-trifluoromethoxyphenyl)ethyl]-7-azabicyclo[2.2.1]hept-1-yl}methanol], the Emax at 10 µM in assay [1] and in assay [2] was below 25% throughout.
Regarding `O[C@H](c1cncc(F)c1)C12CCC(CCc3ccc(OC(F)(F)F)cc3)(CC1)N2` [Compound 545, (R)-(5-fluoro-3-pryidyl){4-[2-(p-trifluoromethoxyphenyl)ethyl]-7-azabicyclo[2.2.1]hept-1-yl}methanol], the Emax at 10 µM in assay [1] and in assay [2] was below 25% each time.
For `O[C@H](c1cccc(F)c1)C12CCC(CCc3ccc(OC(F)(F)F)cc3)(CC1)N2` [Compound 546, (R)-(m-fluorophenyl){4-[2-(p-trifluoromethoxyphenyl)ethyl]-7-azabicyclo[2.2.1]hept-1-yl}methanol], the Emax at 10 µM in assay [1] and in assay [2] was below 25% each time.
Regarding `O[C@@H](c1ccccc1F)C12CCC(CCc3cccnc3)(CC1)N2` [Compound 547, (S)-(o-fluorophenyl){4-[2-(3-pyridyl)ethyl]-7-azabicyclo[2.2.1]hept-1-yl}methanol], the Emax at 10 µM in assay [1] was above 75%; in assay [2] it was below 25%.
In the case of `CC(C)(C)NC[C@H](O)c1cncc(F)c1` [Compound A, (R)-2-(tert-Butylamino)-1-(5-fluoropyridin-3-yl)ethan-1-ol], the “receptor mediating the glucose uptake promoted by the compound” value on β2-adrenergic receptor is “mediated through the β2-adrenergic receptor”. The “effects on glucose homeostasis (glycemia, glucose tolerance and insulin sensitivity)” value in assay [3] was “additional positive effects”. For the same molecule, in assay [4], the glucose uptake result is recorded as “significant glucose uptake”. Further, in assay [5], the cAMP levels induced result was “without inducing significant levels of cAMP”.
